Data taken from patent publication US20140186302A1, “Nutritional Formulations and Method for Treating Diseases” (priority 2012, published 2014).

Assays:
retinal lesions [1] = test: Retinal lesion size by retinal photography in subjects having vitreomacular traction (VMT); assay type: in vivo, human
Source text: As used herein, the terms “units of diameter” and units made in reference to lesion size or diameter refer to units of diameter of the posterior pole of an eye, which measures ten units in diameter between the vascular arcades. A lesion can be larger than 19 units.
Diagnosis of vitreomacular traction (VMT): VMT can be symptomatic or asymptomatic. Complaints of reduced or distorted vision may or may not be reported by the subject. Measurement of visual acuity (VA) may or may not be normal or reduced in one or both eyes. Measurement for distortion on an Amsler grid may or may not show distortion in one or both eyes. Retinal photography may show signs of VMT in the original color composite image (e.g., upper left photo in four panel photo of FIG. 1A). Further analysis of the choroid (e.g., upper right photo in four panel photo of FIG. 1A), the retina (e.g., lower left photo in four panel photo of FIG. 1A), and the retinal nerve fibre layer (RNFL) (e.g., lower right photo in four panel photo of FIG. 1A), may reveal puckering, fibrosis, lamellar splitting, partial lamellar holes, pseudo macular holes, bulging and/or edema in the choroid, retinal and/or RNFL images. Further analysis with “3-D” images of the choroid, retina and RNFL layers may show elevations diagnostic of VMT, such as, for example, the presence, severity and/or size of puckering, partial lamellar holes, macular holes, bulging or edema. Further, “3-D” images can be useful for determining which layers of the eye tissue are affected by VMT.
Ocular imaging: retinal photographs were taken using a Canon CR-1 Digital Retinal Camera and analyzed using EyeScape Digital Imaging Software, version 7.5.5.
The settings used for taking retinal photographs were such that optimal contrast and brightness for each subject was achieved. Most retinal photographs were taken with a dilated pupil. Some subjects have naturally very large pupils. In these cases, pupil dilation may not have been required to obtain sufficient images. The Canon CR-1 has a setting for small pupils that was used as required.
Data were collected from 40 subjects having symptomatic VMT over a period of 4.5 years.
Subjects were treated daily with lutein and zeaxanthin as described in table 1.

retinal lesions [2] = test: as above; assay type: in vivo, human; conditions: Case 1, lutein (10 mg) every other day, four months
[3] = Lutein 5 mg, zeaxanthin 0 mg, case 31
[4] = Lutein 18 mg, zeaxanthin 0 mg, case 13
[5] = Lutein 20 mg, zeaxanthin 0 mg, case 2
[6] = Lutein 0 mg, zeaxanthin 1 mg, case 27

In the case of CC1=C[C@H](O)CC(C)(C)[C@H]1/C=C/C(C)=C/C=C/C(C)=C/C=C/C=C(C)/C=C/C=C(C)/C=C/C1=C(C)C[C@@H](O)CC1(C)C [lutein], the “OD lesion (units)” value (retinal lesions [1]; [3]) is reported as 0 units, the “OS lesion (units)” value (retinal lesions [1]; [3]) is reported as 0.5 units and the “OD lesion (units)” value (retinal lesions [1]; [4]) is reported as 0 units. For the same compound, the “OS lesion (units)” value (retinal lesions [1]; [4]) was 0 units, the “OD lesion (units)” value (retinal lesions [1]; [5]) was 0 units and the “OS lesion (units)” value (retinal lesions [1]; [5]) was 3 units. The “ERM OD size after treatment” value (retinal lesions [2]; from 1.5 units) was 0.5 units and the “OS macular pucker size after treatment” value (retinal lesions [2]; from 6.5 units) was 5.0 units.
In the case of CC1=C(/C=C/C(C)=C/C=C/C(C)=C/C=C/C=C(C)/C=C/C=C(C)/C=C/C2=C(C)C[C@@H](O)CC2(C)C)C(C)(C)C[C@H](O)C1 [zeaxanthin], the “OD lesion (units)” value (retinal lesions [1]; [6]) is reported as 0.5 units and the “OS lesion (units)” value (retinal lesions [1]; [6]) is reported as 0.5 units.
